According to patent US20070196484A1, “Poorly water-soluble drug-containing solid formulation” (priority 2004, published 2007):
In brackets after ≈: the same amount, converted by molar mass.

Legend:
[1] = Solubility of bisacodyl in the co-existence of dioctyl sodium sulfosuccinate; assay type: physicochemical; settings: for solubility at 5 h: thermodynamic from solid
Procedure: Variation in solubility of bisacodyl was studied in the co-existence of bisacodyl and dioctyl sodium sulfosuccinate. Bisacodyl was dispersed in purified water and the dispersion was shaken under given conditions for 5 hours. The resulting liquid was centrifuged at 3000 min^−1 for 5 min. Then, the supernatant was collected and the amount of dissolved bisacodyl was determined by HPLC. In a similar manner, bisacodyl was dispersed in solutions containing dioctyl sodium sulfosuccinate at 0.07%, 0.14% and 0.35%. Each dispersion was shaken and centrifuged at 3000 min^−1 for 5 min. Then, the supernatant was collected and the amount of dissolved bisacodyl was determined by HPLC.

[2] = tested on: SD male rats; assay: Intra-ileal administration test, onset of catharsis; assay type: in vivo, rat; settings: bisacodyl 2 mg/kg, DSS 3.2 mg/kg, observed 24 hours, FIG. 3
Procedure: (§1) SD male rats were used in 10 animals per group. Test substances used were bisacodyl alone (2 mg/kg), DSS alone (3.2 mg/kg) and bisacodyl (2 mg/kg)+DSS (3.2 mg/kg).
A rat underwent laparotomy under ether anesthesia and a test substance was injected via a syringe into an ileum at 20 cm to the mouth from the ileocecum at a dose of 1 mL/kg rat weight.

[3] = tested on: SD male rats; assay: Oral administration test, onset of catharsis; assay type: in vivo, rat; settings: bisacodyl 2 mg/kg, DSS 3.2 mg/kg, observed 24 hours, FIG. 3
Procedure: as §1

Row | solubility at 5 h ([1]; 0.07% dioctyl sodium sulfosuccinate aqueous solution, aqueous with cosolvent or surfactant or cyclodextrin, Sample 1: 0.07% DSS aq.) | solubility at 5 h ([1]; 0.14% dioctyl sodium sulfosuccinate aqueous solution, aqueous with cosolvent or surfactant or cyclodextrin, Sample 2: 0.14% DSS aq.) | solubility at 5 h ([1]; 0.35% dioctyl sodium sulfosuccinate aqueous solution, aqueous with cosolvent or surfactant or cyclodextrin, Sample 3: 0.35% DSS aq.) | Proportion to control (solubility of bisacodyl) ([1]; Sample 1: 0.07% DSS aq.) | Proportion to control (solubility of bisacodyl) ([1]; Sample 2: 0.14% DSS aq.) | Proportion to control (solubility of bisacodyl) ([1]; Sample 3: 0.35% DSS aq.) | solubility at 5 h ([1]; Control: purified water, 0% DSS, shaken 5 hours) | Compound | Cathartic effect (catharsis incidence) [2] | Cathartic effect (catharsis incidence) [3]
1 | 3.62 µg/mL (≈ 10 µM) | 4.51 µg/mL (≈ 12.5 µM) | 12.7 µg/mL (≈ 35.1 µM) | 191.5% | 238.6% | 672.0% | 1.89 µg/mL (≈ 5.23 µM) | CC(=O)Oc1ccc(C(c2ccc(OC(C)=O)cc2)c2ccccn2)cc1 [Bisacodyl] | – | –
2 | – | – | – | – | – | – | – | CCCCC(CC)COC(=O)CC(C(=O)OCC(CC)CCCC)S(=O)(=O)[O-].[Na+] (stereo not drawn) [DSS, Dioctyl sodium sulfosuccinate] | cathartic effect was not observed | cathartic effect was not observed
